Reference: patent US10889543B2, “Fine-tune modulators of neuronal excitability for neuropsychiatric disorders” (THE BOARD OF REGENTS OF THE UNIVERSITY OF TEXAS SYSTEM, priority 2016, dated 2021)
Residues, ends and D or L forms follow the SMILES beside them. *: point of attachment. Cbz = O=C(OCc1ccccc1)*; Boc = CC(C)(C)OC(=O)*

Target: T1, Nav1.6 channel in the presence of FGF14 (Homo sapiens, UniProt Q9UQD0)
T1 construct: expressed in transfected cells; host or cells: HEK-Nav1.6 cells transiently transfected with FGF14-GFP
T1 sequence (Q9UQD0 whole entry): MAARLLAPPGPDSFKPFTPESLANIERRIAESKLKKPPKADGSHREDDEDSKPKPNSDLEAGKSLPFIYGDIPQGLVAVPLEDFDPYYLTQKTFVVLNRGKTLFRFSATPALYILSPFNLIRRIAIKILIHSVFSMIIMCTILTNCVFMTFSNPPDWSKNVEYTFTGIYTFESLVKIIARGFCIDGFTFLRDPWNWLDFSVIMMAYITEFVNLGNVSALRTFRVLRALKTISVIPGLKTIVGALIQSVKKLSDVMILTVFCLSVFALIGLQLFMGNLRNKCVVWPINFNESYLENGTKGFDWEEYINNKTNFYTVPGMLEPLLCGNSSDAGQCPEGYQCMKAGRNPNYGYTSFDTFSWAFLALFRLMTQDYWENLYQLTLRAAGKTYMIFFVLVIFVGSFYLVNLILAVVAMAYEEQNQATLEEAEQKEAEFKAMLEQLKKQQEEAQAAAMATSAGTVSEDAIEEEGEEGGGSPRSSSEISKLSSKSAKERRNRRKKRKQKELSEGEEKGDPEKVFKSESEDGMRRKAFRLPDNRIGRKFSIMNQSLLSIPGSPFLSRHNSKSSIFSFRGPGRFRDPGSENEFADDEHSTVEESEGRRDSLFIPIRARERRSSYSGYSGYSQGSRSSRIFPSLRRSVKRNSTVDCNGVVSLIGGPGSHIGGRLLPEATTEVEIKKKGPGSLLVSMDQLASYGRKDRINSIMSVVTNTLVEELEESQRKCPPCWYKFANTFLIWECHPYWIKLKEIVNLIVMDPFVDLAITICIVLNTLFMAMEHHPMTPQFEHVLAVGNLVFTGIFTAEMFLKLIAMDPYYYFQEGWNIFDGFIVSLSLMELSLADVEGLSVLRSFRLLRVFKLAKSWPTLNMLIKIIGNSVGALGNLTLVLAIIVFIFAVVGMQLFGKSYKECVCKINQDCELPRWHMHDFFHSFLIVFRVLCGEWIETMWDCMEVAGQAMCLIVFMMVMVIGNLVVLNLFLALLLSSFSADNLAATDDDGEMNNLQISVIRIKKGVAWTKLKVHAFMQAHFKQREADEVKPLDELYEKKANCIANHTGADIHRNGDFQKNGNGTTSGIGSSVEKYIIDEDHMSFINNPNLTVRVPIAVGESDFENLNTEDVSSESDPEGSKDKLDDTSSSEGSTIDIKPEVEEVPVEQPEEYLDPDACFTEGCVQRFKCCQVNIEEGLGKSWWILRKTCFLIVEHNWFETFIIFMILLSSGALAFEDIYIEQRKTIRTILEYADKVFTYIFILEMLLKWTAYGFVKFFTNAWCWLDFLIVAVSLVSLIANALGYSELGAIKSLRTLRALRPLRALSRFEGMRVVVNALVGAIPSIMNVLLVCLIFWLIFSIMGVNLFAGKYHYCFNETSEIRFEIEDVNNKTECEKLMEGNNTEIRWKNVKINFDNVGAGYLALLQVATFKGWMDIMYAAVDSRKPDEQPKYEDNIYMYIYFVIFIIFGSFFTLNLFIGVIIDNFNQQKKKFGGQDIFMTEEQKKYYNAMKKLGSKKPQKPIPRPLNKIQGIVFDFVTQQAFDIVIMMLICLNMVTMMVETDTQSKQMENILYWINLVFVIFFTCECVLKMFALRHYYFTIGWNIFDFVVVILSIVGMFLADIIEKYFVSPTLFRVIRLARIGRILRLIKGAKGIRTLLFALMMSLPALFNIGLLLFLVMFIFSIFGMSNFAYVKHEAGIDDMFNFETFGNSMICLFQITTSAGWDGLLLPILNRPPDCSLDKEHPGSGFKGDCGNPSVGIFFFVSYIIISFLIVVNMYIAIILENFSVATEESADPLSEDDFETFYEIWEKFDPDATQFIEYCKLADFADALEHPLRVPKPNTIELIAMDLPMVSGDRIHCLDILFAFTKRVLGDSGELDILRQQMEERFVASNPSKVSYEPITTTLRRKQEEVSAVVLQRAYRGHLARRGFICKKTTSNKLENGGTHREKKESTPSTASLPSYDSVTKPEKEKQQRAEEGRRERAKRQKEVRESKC
Experiment: Whole-cell patch clamp of Na+ currents in HEK-Nav1.6 cells expressing FGF14-GFP
Format: cell-based
Method: To determine the role of compounds of the invention in Nav1.6 channels alone and Nav1.6 channels in the presence of FGF14, 2×2 experimental groups using compound ZL0181, an exemplary embodiment, were designed. HEK-Nav1.6 cells were transiently transfected with GFP or […] and treated with either DMSO (0.15% final concentration, control group) or ZL0181 (20 μM, final concentration) 20-60 min prior to the experiments. […] Thus, ZL0181 inhibits peak current amplitude of Na1.6 current.
The role of ZOL181 in Nav1.6 channel in the presence of FGF14 was then investigated. […] Furthermore, the role of ZL0181 to modulate the biophysical properties of Nav1.6 channel in the presence of FGF14 was investigated. In consistency with previous studies, voltage dependence of activation and steady-state inactivation kinetics changes in the cells expressing FGF14-GFP compared with control (FIG. 3C). […] Thus, ZL0181 works synergistically with FGF14 to regulate the peak current amplitude as well as the inactivation kinetics.
Furthermore, using a range of doses from 1 μM to 100 μM a dose-response profile for ZL0181 in HEK293-Nav1.6 cells alone and HEK-Nav1.6 cells transfected with FGF14 was developed.
HEK-Nav1.1, […] HEK-Nav1.6 were maintained in medium composed of equal volumes of DMEM and F-12 (Invitrogen) supplemented with 0.05% glucose, 0.5 mm pyruvate, 10% fetal bovine serum, 100 units/ml penicillin, 100 μg/ml streptomycin incubated at 37° C. with 5% CO2. For selection of Nav1.1 and Nav1.2, 500 μg/ml G418 (Invitrogen) was used, and for selection of Nav1.6, 80 μg/ml G418 (Invitrogen) was used. Cells were transfected according to manufacturer's instructions at 90-100% confluency using Lipofectamine 2000 (Invitrogen). See e.g., Shavkunov, A., et al. Assay and drug development technologies 10(2):148-160 (2012).
Detailed methods for path-clamp experiments is known in the art. See e.g., Ali, S. R., et al., Journal of Biological Chemistry 291:11268 (2016).

Question: For `CC(C)C[C@H](NC(=O)[C@H](Cc1ccccc1)NC(=O)OCc1ccccc1)C(=O)N1CCC[C@H]1C(=O)N[C@@H](CCCCNC(=O)OC(C)(C)C)C(N)=O` [ZL0181, Z-Phe-Leu-Pro-Lys(Boc)-NH2] (Cbz-FLPK(Boc)-NH2), which “steady-state inactivation (depolarizing shift induced by FGF14-GFP)” value (FGF14-GFP-expressing HEK-Nav1.6 cells, 20 μM) is on record?
Answer: rescued the depolarizing shift of the steady-state inactivation induced by FGF14-GFP expression back to control levels

Question: And the “Na+ current peak amplitude (peak current density)” value (FGF14-GFP-expressing HEK-Nav1.6 cells, 20 μM, n=19, DMSO control −18.1±3.8)?
Answer: −7.4±4.4 pA/pF

Question: What about the IC50 (HEK-Nav1.6 cells transfected with FGF14, doses 1 μM to 100 μM, read-out: IC50, inhibition of Nav1.6 encoded currents in presence of FGF14) of the same compound?
Answer: 11.5 ± 1.3 µM
